Test results: patent publication US12655116B2, “Substituted isophthalic acid diamides” (Bayer Aktiengesellschaft, priority 2020, dated 2026)

Columns and labels:
ABUTH [1] = experiment: Pre-emergence herbicidal action against ABUTH; type: in vivo, Abutilon theophrasti
How it was run: (§1)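 Visual rating at 3 weeks vs untreated pots; 0–100% scale, 100% = plants died. Treatment: aqueous WP/EC spray onto covering soil, 600–800 l/ha, 0.2% wetter, seeds in sandy loam.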

VIOTR [2] = experiment: Pre-emergence herbicidal action against VIOTR; type: in vivo, Viola tricolor; details: Viola tricolor, 504 h
How it was run: as §1

VIOTR [3] = experiment: Post-emergence herbicidal action against VIOTR; type: in vivo, Viola tricolor; details: Viola tricolor, 504 h
How it was run: (§2)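 Weeds in sandy loam soil received a post-emergence spray at the one-leaf stage. Compounds were applied as WP or EC in water, 600 to 800 l/ha, with 0.2% wetting agent. Activity in % was judged visually after roughly 3 weeks against untreated plants.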

AMARE [4] = experiment: Post-emergence herbicidal action against AMARE; type: in vivo, Amaranthus retroflexus; details: 20 g/ha, visual assessment about 3 weeks after treatment, 100% = plants have died, 0% = like control plants
How it was run: as §2

ECHCG [5] = experiment: Post-emergence herbicidal action against ECHCG; type: in vivo, Echinochloa crus-galli
How it was run: as §2

LOLRI = experiment: Pre-emergence herbicidal action against LOLRI; type: in vivo, Lolium rigidum
Text: Seeds of monocotyledonous and dicotyledonous weed plants and crop plants are laid out in sandy loam soil in wood-fiber pots and covered with soil. The compounds of the invention, formulated in the form of wettable powders (WP) or as emulsion concentrates (EC), are then applied to the surface of the covering soil in the form of an aqueous suspension or emulsion at a water application rate equivalent to 600 to 800 l/ha, with addition of 0.2% wetting agent. After the treatment, the pots are placed in a greenhouse and kept under good growth conditions for the trial plants. The damage to the test plants is scored visually after a test period of 3 weeks by comparison with untreated controls (herbicidal activity in percent (%): 100% activity=the plants have died, 0% activity=like control plants). […] The tables below illustrate, in an illustrative manner, the post-emergence herbicidal action of the compounds of the invention, the herbicidal activity being stated in percent.

AMARE [6] = experiment: Pre-emergence herbicidal action against AMARE; type: in vivo, Amaranthus retroflexus; details: 80 g/ha
How it was run: as §1

MATIN [7] = experiment: Pre-emergence herbicidal action against MATIN; type: in vivo, Matricaria inodora
How it was run: as §1

SETVI [8] = experiment: Post-emergence herbicidal action against SETVI; type: in vivo, Setaria viridis; details: Setaria viridis, 504 h
How it was run: as §2

ALOMY [9] = experiment: Pre-emergence herbicidal action against ALOMY; type: in vivo, Alopecurus myosuroides; details: pre-emergence
How it was run: as §1

SETVI [10] = experiment: Pre-emergence herbicidal action against SETVI; type: in vivo, Setaria viridis; details: Setaria viridis, 504 h, dosage 80 g/ha
How it was run: as §1

VERPE [11] = experiment: Pre-emergence herbicidal action against VERPE; type: in vivo, Veronica persica; details: dosage 80 g/ha
How it was run: as §1

PHBPU [12] = experiment: Post-emergence herbicidal action against PHBPU; type: in vivo, Pharbitis purpurea
How it was run: as §2

AVEFA = experiment: Pre-emergence herbicidal action against AVEFA; type: in vivo, Avena fatua
How it was run: as §1

ABUTH [13] = experiment: Post-emergence herbicidal action against ABUTH; type: in vivo, Abutilon theophrasti; details: visual assessment about 3 weeks after treatment vs untreated controls
How it was run: as §2

ALOMY [14] = experiment: Post-emergence herbicidal action against ALOMY; type: in vivo, Alopecurus myosuroides; details: Alopecurus myosuroides, 504 h, dosage 20 g/ha, visual assessment about 3 weeks after treatment vs untreated controls
How it was run: as §2

ECHCG [15] = experiment: Pre-emergence herbicidal action against ECHCG; type: in vivo, Echinochloa crus-galli
How it was run: as §1

VERPE [16] = experiment: Post-emergence herbicidal action against VERPE; type: in vivo, Veronica persica; details: Veronica persica, 504 h, 20 g/ha
How it was run: as §2

MATIN [17] = experiment: Post-emergence herbicidal action against MATIN; type: in vivo, Matricaria inodora
How it was run: as §2

DIGSA [18] = experiment: Post-emergence herbicidal action against DIGSA; type: in vivo, Digitaria sanguinalis; details: 20 g/ha
How it was run: as §2

DIGSA [19] = experiment: Pre-emergence herbicidal action against DIGSA; type: in vivo, Digitaria sanguinalis; details: dosage 80 g/ha
How it was run: as §1

PHBPU [20] = experiment: Pre-emergence herbicidal action against PHBPU; type: in vivo, Pharbitis purpurea; details: dosage 80 g/ha
How it was run: as §1

[21] = Tripleurospermum inodorum, 504 h, dosage 20 g/ha
[22] = 80 g/ha, scored visually after 3 weeks vs untreated controls (100% = plants have died, 0% = like control plants)

CSc1c(C(=O)Nc2nnnn2C)ccc(C(F)(F)F)c1C(=O)NC1CC1 [Example 1-83]
100%: pest or weed control at 80 g/ha (ABUTH [1]; Abutilon theophrasti, 504 h, 80 g/ha, scored visually after 3 weeks vs untreated controls (100% = plants have died, 0% = like control plants)) | pest or weed control at 20 g/ha (ABUTH [1]; Abutilon theophrasti, 504 h, dosage 20 g/ha, scored visually after 3 weeks vs untreated controls, 100% = plants have died, 0% = like control plants, read-out: Pre-emergence action against ABUTH (herbicidal activity in percent)) | pest or weed control at 80 g/ha (VIOTR [2]; dosage 80 g/ha) | pest or weed control at 20 g/ha (AMARE [4]; Amaranthus retroflexus, 504 h) | pest or weed control at 80 g/ha (AMARE [6]; Amaranthus retroflexus, 504 h, scored visually after 3 weeks vs untreated controls, 100% = plants have died, 0% = like control plants) | pest or weed control at 80 g/ha (MATIN [7]; Tripleurospermum inodorum, 504 h, dosage 80 g/ha) | pest or weed control at 20 g/ha (SETVI [8]; dosage 20 g/ha) | pest or weed control at 80 g/ha (ALOMY [9]; Alopecurus myosuroides, 504 h, 80 g/ha, scored visually after 3 weeks vs untreated controls (100% = plants have died, 0% = like control plants)) | pest or weed control at 80 g/ha (SETVI [10]) | pest or weed control at 20 g/ha (ALOMY [14])
80%: pest or weed control at 80 g/ha (LOLRI; Lolium rigidum, 504 h, 80 g/ha) | pest or weed control at 5 g/ha (SETVI [8]; dosage 5 g/ha) | pest or weed control at 20 g/ha (ALOMY [9]; Alopecurus myosuroides, 504 h, 20 g/ha, scored visually after 3 weeks, 100% = plants have died, 0% = like control plants) | pest or weed control at 80 g/ha (VERPE [11]; Veronica persica, 504 h) | pest or weed control at 80 g/ha (AVEFA; Avena fatua, 504 h, 80 g/ha, pre-emergence) | pest or weed control at 5 g/ha (MATIN [17]; Tripleurospermum inodorum, 504 h, dosage 5 g/ha)
90%: pest or weed control at 20 g/ha (VIOTR [2]; dosage 20 g/ha) | pest or weed control at 5 g/ha (VIOTR [3]; 5 g/ha) | pest or weed control at 20 g/ha (VIOTR [3]; 20 g/ha) | pest or weed control at 20 g/ha (ECHCG [5]; Echinochloa crus-galli, 504 h, dosage 20 g/ha) | pest or weed control at 20 g/ha (MATIN [7]; [21]) | pest or weed control at 20 g/ha (PHBPU [12]; Ipomoea purpurea, 504 h, dosage 20 g/ha) | pest or weed control at 5 g/ha (ABUTH [13]; Abutilon theophrasti, 504 h, dosage 5 g/ha) | pest or weed control at 20 g/ha (ABUTH [13]; Abutilon theophrasti, 504 h, dosage 20 g/ha) | pest or weed control at 80 g/ha (ECHCG [15]; Echinochloa crus-galli, 504 h, 80 g/ha) | pest or weed control at 20 g/ha (VERPE [16]) | pest or weed control at 20 g/ha (MATIN [17]; [21])

Cn1nnnc1NC(=O)c1ccc(C(F)F)c(C(=O)NC2CCC2)c1Cl [Example 1-164]
100%: Pre-emergence action against LOLRI in % (LOLRI; 20 g/ha) | Pre-emergence action against LOLRI in % (LOLRI; 80 g/ha) | Pre-emergence action against AMARE in % (AMARE [6]; scored visually after 3 weeks vs untreated controls (100% = plants have died, 0% = like control plants)) | Pre-emergence action against MATIN in % (MATIN [7]; dosage 80 g/ha) | Pre-emergence action against ALOMY (herbicidal activity) (ALOMY [9]; [22]) | Pre-emergence action against AVEFA (AVEFA; 20 g/ha, scored visually after 3 weeks, 100% = plants have died, 0% = like control plants) | Pre-emergence action against AVEFA in % (AVEFA; 80 g/ha, pre-emergence) | Pre-emergence action against ECHCG in % (ECHCG [15]; 20 g/ha) | Pre-emergence action against ECHCG in % (ECHCG [15]; 80 g/ha) | Pre-emergence action against PHBPU in % (PHBPU [20])
80%: Pre-emergence action against ABUTH (herbicidal activity) (ABUTH [1]; [22]) | Pre-emergence action against ABUTH (herbicidal activity in percent) (ABUTH [1]; dosage 20 g/ha, scored visually after 3 weeks vs untreated controls, 100% = plants have died, 0% = like control plants) | Post-emergence action against ECHCG in % (ECHCG [5]; dosage 5 g/ha) | Post-emergence action against DIGSA (DIGSA [18]) | Post-emergence action against ABUTH in % (ABUTH [13]; dosage 5 g/ha) | Post-emergence action against ABUTH in % (ABUTH [13]; dosage 20 g/ha) | Pre-emergence action against DIGSA in % (DIGSA [19]) | Post-emergence action against MATIN in % (MATIN [17]; dosage 5 g/ha) | Post-emergence action against MATIN in % (MATIN [17]; dosage 20 g/ha)
90%: Post-emergence action at 20 g/ha against AMARE in % (AMARE [4]) | Post-emergence action against ECHCG in % (ECHCG [5]; dosage 20 g/ha) | Pre-emergence action against VERPE in % (VERPE [11]) | Post-emergence action against PHBPU in % (PHBPU [12]; dosage 5 g/ha) | Post-emergence action against PHBPU in % (PHBPU [12]; dosage 20 g/ha)
